Data reported in patent US8334260B2, “sFRP and peptide motifs that interact with sFRP and methods of their use” (The United States of America as represented by the …, priority 2001, dated 2012).
Entries after “also recorded” stand apart in the source; their conditions may differ. Where no end group is shown, it is not given here.

Tests used:
sFRP-1 [1] = assay: ELISA of peptide/alkaline phosphatase fusion proteins binding to sFRP-1; parameters: species or system human; conditions: bacterial broths, sFRP-1-coated versus BSA-coated wells, pNPP at 405 nm
Description: Synthetic oligonucleotides encoding peptides of interest were ligated into the bacterial alkaline phosphatase fusion vector, pMY101, which had been digested with Sal I and Xho I (Yamabhai and Kay, Anal Biochem. 247:143-151, 1997). All recombinants were confirmed by DNA sequence analysis. Bacteria (E. coli, strain DH5αF′) transformed with the peptide/AP constructs were grown in Luria broth containing ampicillin (50 μg/mL) to an optical density of 0.5 (at 600 nm), treated with 1 mM isopropyl-β-D-thiogalactopyranoside and then incubated overnight at 37° C. Conditioned medium containing peptide/AP chimera was recovered by centrifugation at 7000 g for 15 minutes. Chimeric proteins in conditioned medium were stable when stored for a few weeks at 4° C. or for several months when stored at −80° C.
ELISA experiments were generally performed as previously described (Uren et al., J. Biol. Chem. 275:4374-4382, 2000), with modifications depending on the sFRP binding partner to be tested. Typically, wells were coated with 0.5 or 1 μg of sFRP-1, blocked with BSA (0.2%, 1%, or 4%) and then incubated with putative binding partner overnight at room temperature. When investigating the binding of peptide/AP chimeras, after aspiration of bacterial broths, wells were washed and incubated with p-nitrophenolphosphate (pNPP). Color development was determined at 405 nm with an ELISA reader. […] Following overnight incubation at room temperature, RANKL solutions were aspirated and bound RANKL was detected by sequential incubations with primary antibody to RANKL, secondary antibody coupled with AP and pNPP. […]
A set of peptide-alkaline phosphatase fusion proteins containing the peptide motifs (SEQ ID NOS: 14, 11, and 27) were generated. […] This qualitative difference between A-C2 (SEQ ID NO: 14), A-E4 (SEQ ID NO: 1), and B-B9 (SEQ ID NO: 27) derivatives was consistent with a quantitative difference noted during the ELISA screening of the respective phage. […]

sFRP-1 [2] = assay: Competition ELISA: soluble peptides against peptide/AP chimera binding to sFRP-1; parameters: species or system human; conditions: for inhibition of A-D9/AP chimera binding to sFRP-1: soluble peptide; for inhibition of A-C2/alkaline phosphatase fusion protein binding to sFRP-1: soluble peptide preincubated 30 min with chimera
Description: (§1) ELISA experiments were generally performed as previously described (Uren et al., J. Biol. Chem. 275:4374-4382, 2000), with modifications depending on the sFRP binding partner to be tested. Typically, wells were coated with 0.5 or 1 μg of sFRP-1, blocked with BSA (0.2%, 1%, or 4%) and then incubated with putative binding partner overnight at room temperature. When investigating the binding of peptide/AP chimeras, after aspiration of bacterial broths, wells were washed and incubated with p-nitrophenolphosphate (pNPP). Color development was determined at 405 nm with an ELISA reader. For competition experiments, soluble peptides were preincubated with peptide/AP chimeras in bacterial broth for 30 min at room temperature prior to transfer into ELISA wells coated with sFRP-1 or BSA. When testing RANKL binding to sFRP-1, serial dilutions of soluble RANKL were assayed in replicate. Following overnight incubation at room temperature, RANKL solutions were aspirated and bound RANKL was detected by sequential incubations with primary antibody to RANKL, secondary antibody coupled with AP and pNPP. Similar experimental designs were employed when other TNFα family members were examined for binding to sFRPs, and when sFRP-1 derivatives or sFRP-2 were the binding targets for RANKL.

[3] = tested on: co-cultures of primary osteoblasts and adult spleen cells; assay: Osteoclastogenesis co-culture of primary osteoblasts and adult spleen cells (TRAP+ cells); type: cell-based, mouse; conditions: for effect on TRAP+ multinucleated cells (osteoclast formation): 5 μg/mL with optimal doses of vitamin D3 (10^-8 M) and PGE2 (10^-7 M)
Description: Osteoblastic cells were prepared from the calvaria of newborn mice by digestion with 0.1% collagenase (Worthington Biochemical Co., Freefold, […]) and 0.2% dispase (Godo Shusei, Tokyo, Japan). […] Exp. Med. 182: 1461-1468, 1995). Osteoblastic cells were co-cultured with bone marrow or spleen cells as described previously (Udagawa et al., J. Exp. Med. 182: 1461-1468, 1995). In short, primary osteoblastic cells (2×10^4/well) and nucleated spleen cells (1×10^6/well) or marrow cells (5×10^5/well) were co-cultured in 48-well plates (Corning Glass Inc., Corning, N.Y.) with 0.4 mL of α-MEM (GIBCO/BRL, Grand Island, N.Y.) containing 10% fetal bovine serum (Cytosystems, Castle Hill, NSW, Australia) in the presence of test chemicals. Cultures were incubated in quadruplicate and cells were replenished on day 3 with fresh medium. Osteoclast formation was evaluated after culturing for 6-7 days. Adherent cells were fixed and stained for tartrate-resistant acid phosphatase (TRAP), and the number of TRAP-positive osteoclasts was scored as described (Udagawa et al., J. Exp. Med. 182: 1461-1468, 1995). For TRAP staining, adherent cells were fixed with 4% formaldehyde in PBS for 3 minutes. After treatment with ethanol-acetone (50/50, vol/vol) for 1 minute, the well surface was air dried and incubated for 10 minutes at room temperature in an acetate buffer (0.1 M sodium acetate, pH 5.0) containing 0.01% naphthol AS-MX phosphate (Sigma) as a substrate and 0.03% red violet LB salt (Sigma) as a stain for the reaction product in the presence of 50 mM sodium tartrate. TRAP-positive cells appeared dark red, and those with three or more nuclei were scored as multinucleated and considered as osteoclasts. Validation of osteoclast formation was achieved using the specific marker of calcitonin receptor (CTR) expression and bone resorption. CTR expression was determined either by autoradiography with ^125I-salmon calcitonin or by immunohistochemical localization using an array of antibodies we have developed as described by Quinn et al., Bone 25:1-8, 1999.

adult mouse spleen cells = assay: RANKL and M-CSF induced osteoclast formation from adult mouse spleen cells; type: cell-based
Description: (§2) In some instances, experiments were performed either with adult mouse spleen cells or with RAW264.7 cells treated with M-CSF and RANKL as described in Quinn et al., Endocrinology 139:4424-4427, 1998. Where indicated, these assays were conducted in the presence or absence of splenic T cells. T cell fractions were prepared as described in Horwood et al., Journal of Clinical Investigation 101:595-603, 1998.

RAW264.7 cells [4] = assay: RANKL-induced osteoclast formation in RAW264.7 cells; type: cell-based; conditions: RANKL 50 ng/mL, T cells added; 5, 1 and 0.5 μg/mL
Description: as §2
(§3) The effect of bacterially expressed CRD was assessed in three different cell culture models of osteoclast formation. These were: (1) bone marrow cells+RANKL+M-CSF, (2) the macrophage/monocyte cell line RAW264.7+RANKL, and (3) RAW264.7+TNFα+TGFβ (Horwood et al., Journal of Immunology 166:4915-4921, 2001; Quinn et al., Journal of Bone and Mineral Research. 16, 1787-1794, 2001).

[5] = tested on: AC2/alkaline phosphatase chimera; assay: ELISA of sFRP-1 deletion mutants binding to AC2/alkaline phosphatase chimera; conditions: sFRP-1 deletion mutants coated on ELISA wells
Description: as §1, with “When testing RANKL binding to sFRP-1, serial dilutions of soluble RANKL were assayed in replicate.” left out, “Similar experimental designs were employed when other TNFα family members were examined for binding to sFRPs, and when sFRP-1 derivatives or sFRP-2 were the binding targets for RANKL.” left out
ELISA experiments were performed essentially as described above with a series of sFRP-1 deletion mutants (in Uren et al., J. Biol. Chem., 275: 4374-4382, 2000) to determine what region(s) of the protein were required for binding to the AC2/alkaline phosphatase chimera. […] Little binding was detected with derivatives that contained the CRD alone or the C-terminal region alone.

RANKL = target: T1, RANKL (Homo sapiens, UniProt O14788); assay: ELISA of soluble RANKL binding to wells coated with sFRP-1, sFRP-1 derivatives or sFRP-2; conditions: ELISA, coated wells versus BSA
T1 construct: For ELISA assays, recombinant soluble RANKL and TRAIL, and antibodies directed against these proteins were obtained from PeproTech; purchased PeproTech (Rocky Hill, N.J.)
T1 sequence (O14788 140-317): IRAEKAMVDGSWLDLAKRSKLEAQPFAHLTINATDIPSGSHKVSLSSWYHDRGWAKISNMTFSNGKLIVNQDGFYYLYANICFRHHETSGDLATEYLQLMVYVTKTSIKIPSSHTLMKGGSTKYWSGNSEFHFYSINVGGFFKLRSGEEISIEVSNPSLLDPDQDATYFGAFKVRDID
Description: as §1
The possibility that sFRP-1 (SEQ ID NO: 3) and RANKL interact directly with each other was tested using an ELISA assay. […] RANKL was then incubated in these wells and in adjacent wells that had only been treated with BSA.

RAW264.7 cells [6] = assay: RANKL-independent (TNFα-dependent) osteoclast formation in RAW264.7+TNFα+TGFβ; type: cell-based; conditions: present during the first three days of culture
Description: The effect of sFRP-1 was assessed upon a RANKL-independent method of osteoclast formation using the monocyte/macrophage cell line RAW264.7 (Quinn et al., Journal of Bone and Mineral Research. 16, 1787-1794, 2001) and was compared with that of osteoprotegerin (FIG. 14).
as §3

A-C2 (SEQ ID NO: 14)/alkaline phosphatase fusion protein: A-C2 peptide fused to bacterial alkaline phosphatase (QGTLVDGRWLQL; also: fused to bacterial alkaline phosphatase)
specific binding of peptide/alkaline phosphatase fusion protein to sFRP-1 (sFRP-1 [1]): strong, highly specific binding

A-D9/AP chimera: A-D9 peptide fused to alkaline phosphatase (WECAMYDGRCLT; cysteine pairing not given here; also: fused to alkaline phosphatase)
specific binding of peptide/alkaline phosphatase fusion protein to sFRP-1 (sFRP-1 [1]): bound specifically

Alkaline phosphatase: alkaline phosphatase itself, control for the fusion proteins [reference compound]
specific binding of peptide/alkaline phosphatase fusion protein to sFRP-1 (sFRP-1 [1]): no preferential binding

QGTLVDGRWLQL [A-C2]
inhibition of A-D9/AP chimera binding to sFRP-1 (sFRP-1 [2]): could inhibit binding
inhibition of A-C2/alkaline phosphatase fusion protein binding to sFRP-1 (sFRP-1 [2]): dose-dependent inhibition
effect on TRAP+ multinucleated cells (osteoclast formation) [3]: ten-fold increase; also recorded: markedly stimulated
time window of the effect on osteoclast formation ([3]; peptide present for different periods of the culture): only had an effect on osteoclast formation when it was present during day 0 to day 3
effect on osteoclast formation, T cells removed (adult mouse spleen cells; T cells removed from adult spleen cells with antibody-coupled magnetic beads): no additional response
effect on osteoclast production (adult mouse spleen cells; peptide present during days 0-3, RANKL 50 ng/mL and M-CSF 25 ng/mL): caused an increase in osteoclast production
stimulation of TRAP+ multinucleated cell differentiation (RAW264.7 cells [4]): dose-dependent stimulation

WECAMYDGRCLT (Peptide that binds sFRP) [A-D9]
inhibition of A-D9/AP chimera binding to sFRP-1 (sFRP-1 [2]): blocked in a dose-dependent manner
inhibition of A-C2/alkaline phosphatase fusion protein binding to sFRP-1 (sFRP-1 [2]): inhibited binding

B1: Δ3 derivative: sFRP-1 deletion mutant containing all of the Fz CRD and a portion of the C-terminal region (protein)
chain: MGIGRTEGGRRGAALGVLLALGGASGRGLGSEYDYVSFQSDIGPYQSGRFYTKPPQCVDIPADLRLCHNVGYKKMVLPNLLEHETMAEVKQQASSWVPLLNKNCHAGTQVFLCSLFAPVCLDRPIYPCRWLCEAVRDSCEPVMQFFGFYWPEMLKCDKFPEGDVCIAMTPPNATEASKPQGTTVCPPCDNELKSEAIIEHLCASEFALRMKIKEVKKENGDKKIVPKKKKPLKLGPIKKKDLQAYVEQKLISEEDLNSAVDHHHHHH
modifications: Fusion protein
notes: sFRP-1 deletion mutant containing all of the Fz CRD and a portion of the C-terminal region
binding to the AC2/alkaline phosphatase chimera [5]: Optimal binding

B2: Al derivative: sFRP-1 deletion mutant that consists essentially of the Fz CRD (protein)
chain: MGIGRTEGGRRGAALGVLLALGGASGRGLGSEYDYVSFQSDIGPYQSGRFYTKPPQCVDIPADLRLCHNVGYKKMVLPNLLEHETMAEVKQQASSWVPLLNKNCHAGTQVFLCSLFAPVCLDRPIYPCRWLCEAVRDSCEPVMQFFGFYWPEMLKCDKFPEGDVCIAMTPQAYVEQKLISEEDLNSAVDHHHHHH
modifications: Fusion protein
notes: sFRP-1 deletion mutant that consists essentially of the Fz CRD
binding to RANKL (RANKL): retained good binding

B3: NHD: netrin homology domain of sFRP-1 (protein, listed as Homo sapiens)
chain: CIAMTPPNATEASKPQGTTVCPPCDNELKSEAIIEHLCASEFALRMKIKEVKKENGDKKIVPKKKKPLKLGPIKKKDLKKLVLYLKNGADCPCHQLDNLSHHFLIMGRKVKSQYLLTAIHKWDKKNKEFKNFMKKMKNHEC
effect on TRAP+ multinucleated cells (osteoclast formation) [3]: not further enhanced

B4: OPG: osteoprotegerin, soluble TNF receptor family factor that binds RANKL (protein, UniProt O00300 22-401, looked up)
Tumor necrosis factor …: ETFPPKYLHYDEETSHQLLCDKCPPGTYLKQHCTAKWKTVCAPCPDHYYTDSWHTSDECLYCSPVCKELQYVKQECNRTHNRVCECKEGRYLEIEFCLKHRSCPPGFGVVQAGTPERNTVCKRCPDGFFSNETSSKAPCRKHTNCSVFGLLLTQKGNATHDNICSGNSESTQKCGIDVTLCEEAFFRFAVPTKFTPNWLSVLVDNLPGTKVNAESVERIKRQHSSQEQTFQLLKLWKHQNKDQDIVKKIIQDIDLCENSVQRHIGHANLTFEQLRSLMESLPGKKVGAEDIEKTIKACKPSDQILKLLSLWRIKNGDQDTLKGLMHALKHSKTYHFPKTVTQSLKKTIRFLHSFTMYKLYQKLFLEMIGNQVQSVKISCL
effect on TNFα-dependent osteoclast formation (RAW264.7 cells [6]): no effect
